Assay results from article PMC3282010 (The AAPS Journal, 2011).
Like-named read-outs stand apart in the source and are kept apart here. Marks after values point to notes of the source that are not given here.

How the values were obtained:
clinical [1] = details: human, in vivo, AUCτ
wild-type CHO cells = details: 3 μM, incubation for 40 s, 37°C; mean ± SD
[2] = tested on: endothelin ETA and ETB receptor; details: dual ERA; cited from earlier work
OATP1B1 [3] = molecular target: T1, OATP1B1 (Homo sapiens, UniProt Q9Y6L6)
OATP1B3 [4] = molecular target: T2, OATP1B3 (Homo sapiens, UniProt Q9NPD5)
[5] = cited from earlier work
[6] = for Total plasma concentration at steady-state: healthy subjects, 10-mg once-daily regimen; for Ratio of geometric means of AUCτ / Ratio of geometric means of C tr: macitentan + Cs vs macitentan; for Ratio of geometric means of AUCτ: AUC(384h-408h)/AUC(96h-120h); for Ratio of geometric means of C tr: period 2 versus period 1
clinical [7] = details: human, plasma, oral, AUCτ, part A, macitentan + Cs, 384–408 h (day 17 of period 2), steady-state, geometric mean (95% CI)
[8] = cited from earlier work; remark: listed apart in the source
OATP1B3 [9] = molecular target: T2, OATP1B3; details: for Uptake into OATP1B3 over-expressing cells: 3 μM, incubation for 40 s, 37°C, mean ± SD; for Difference in uptake rate between wild-type and OATP over-expressing cells: OATP1B3, different concentrations tested (Fig. 6)
OATP1B1 [10] = molecular target: T1, OATP1B1; details: for Uptake into OATP1B1 over-expressing cells: 3 μM, incubation for 40 s, 37°C, mean ± SD; for Difference in uptake rate between wild-type and OATP over-expressing cells: OATP1B1, different concentrations tested (Fig. 6)
[11] = human, in vivo
OATP1B1 [12] = molecular target: T1, OATP1B1; details: OATP inhibition IC50 versus free plasma concentration
[13] = strong CYP3A4 inhibitor; cited from earlier work
[14] = in humans, after the first day of co-administration of Cs; cited from earlier work
[15] = macitentan + Cs versus macitentan alone
[16] = part A, macitentan + Cs, 384–408 h (day 17 of period 2), geometric mean (95% CI)
[17] = part A, macitentan alone, 96–120 h (day 5 of period 1), geometric mean (95% CI)

T1 sequence (Q9Y6L6 whole entry): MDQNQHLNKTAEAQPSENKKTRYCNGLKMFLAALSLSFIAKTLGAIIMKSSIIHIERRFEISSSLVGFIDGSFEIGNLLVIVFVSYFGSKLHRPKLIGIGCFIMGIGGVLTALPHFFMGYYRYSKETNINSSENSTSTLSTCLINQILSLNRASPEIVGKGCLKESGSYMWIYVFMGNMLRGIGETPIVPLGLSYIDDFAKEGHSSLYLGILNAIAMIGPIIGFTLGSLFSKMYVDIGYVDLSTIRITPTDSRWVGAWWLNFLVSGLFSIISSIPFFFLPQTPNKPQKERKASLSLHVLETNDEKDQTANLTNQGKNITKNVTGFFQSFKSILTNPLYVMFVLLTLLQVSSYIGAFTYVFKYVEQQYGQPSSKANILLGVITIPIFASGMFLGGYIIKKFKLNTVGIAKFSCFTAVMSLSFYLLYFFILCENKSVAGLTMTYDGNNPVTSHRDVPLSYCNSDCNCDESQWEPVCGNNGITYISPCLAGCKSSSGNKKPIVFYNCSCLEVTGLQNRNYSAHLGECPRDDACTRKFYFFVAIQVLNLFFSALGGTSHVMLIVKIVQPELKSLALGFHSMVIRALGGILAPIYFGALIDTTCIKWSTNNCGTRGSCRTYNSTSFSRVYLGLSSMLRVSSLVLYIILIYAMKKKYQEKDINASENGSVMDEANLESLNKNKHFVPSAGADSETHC
T2 sequence (Q9NPD5 whole entry): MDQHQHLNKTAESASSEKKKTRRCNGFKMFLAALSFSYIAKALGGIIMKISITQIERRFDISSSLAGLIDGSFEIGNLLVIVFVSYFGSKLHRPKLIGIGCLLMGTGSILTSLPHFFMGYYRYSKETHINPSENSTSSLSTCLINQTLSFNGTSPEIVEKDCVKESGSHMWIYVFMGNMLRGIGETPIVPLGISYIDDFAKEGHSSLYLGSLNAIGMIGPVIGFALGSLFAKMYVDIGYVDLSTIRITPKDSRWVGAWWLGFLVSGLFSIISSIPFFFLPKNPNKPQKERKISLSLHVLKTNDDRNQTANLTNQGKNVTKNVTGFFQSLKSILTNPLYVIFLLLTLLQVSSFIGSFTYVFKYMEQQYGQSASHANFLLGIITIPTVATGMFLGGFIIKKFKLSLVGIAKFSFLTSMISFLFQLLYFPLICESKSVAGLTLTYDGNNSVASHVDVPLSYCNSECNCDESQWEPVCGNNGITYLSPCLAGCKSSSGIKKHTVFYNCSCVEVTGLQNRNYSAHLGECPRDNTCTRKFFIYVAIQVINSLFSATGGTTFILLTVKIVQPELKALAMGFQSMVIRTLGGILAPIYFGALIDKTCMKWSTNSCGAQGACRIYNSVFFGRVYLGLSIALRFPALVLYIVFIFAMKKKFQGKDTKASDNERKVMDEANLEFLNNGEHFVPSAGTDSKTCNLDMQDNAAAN

Structure (SMILES)	Uptake into wild-type cells (wild-type CHO cells) [pmol/mg]	IC50 (OATP1B1 [3]) [µM]	Binding to human plasma proteins in vitro [5] [%]	Total plasma concentration at steady-state [6]	Ratio of geometric means of AUCτ ([6]; part A)	Ratio of geometric means of C tr ([6]; part A)	C tr [6, 16]	C tr [6, 17]	AUC (clinical [7]) [ng·h/mL]	elimination half-life (t 1/2) ([8]; in humans)	Uptake into OATP1B3 over-expressing cells (OATP1B3 [9]) [pmol/mg]	Difference in uptake rate between wild-type and OATP over-expressing cells (OATP1B3 [9])	Uptake into OATP1B1 over-expressing cells (OATP1B1 [10]) [pmol/mg]	Difference in uptake rate between wild-type and OATP over-expressing cells (OATP1B1 [10])	Decrease of steady-state AUCτ in the presence of rifampin [11] [%]	Ratio of geometric means of AUCτ [11]	Ratio of geometric means of C tr [11]	Free steady-state plasma concentration lower than the lowest IC50 determined (OATP1B1 [12])	Increase of steady-state AUCτ in the presence of Cs [6, 15] [%]	also measured
NS(=O)(=O)Nc1ncnc(OCCOc2ncc(Br)cn2)c1-c1ccc(Br)cc1 [ACT-132577]	214 ± 11	19.9 ± 1.4	99.5	~1.5 µM	0.97 ng·h/mL	1.02 ng·h/mL	640 (550, 745) ng/mL	626 (547, 717) ng/mL	16400	approximately 48 h	288 ± 10	No marked difference	237 ± 7	No marked difference	0.3	1.00 ng·h/mL	0.83^a ng·h/mL	around 2,490 fold	–	AUC (clinical [1]): 14800 ng·h/mL; Potency in vitro relative to macitentan (less potent) [2]: approximately five-fold; IC50 (OATP1B3 [4]): 51.6 ± 3 µM; Systemic exposure in humans relative to macitentan (higher) ([6]; in humans): 2.5 fold; Decrease of steady-state AUCτ in the presence of Cs [6, 15]: 3%; AUCτ [11]: 14,798 (13,216, 16,569) ng·h/mL
CCCNS(=O)(=O)Nc1ncnc(OCC(=O)O)c1-c1ccc(Br)cc1 [ACT-373898]	–	–	–	–	1.07^a ng·h/mL	1.12^a ng·h/mL	20 (15, 26) ng/mL	17 (13, 24) ng/mL	–	–	–	–	–	–	64	0.36^a ng·h/mL	0.14^a ng·h/mL	–	7	AUCτ ([6]; part A, macitentan + Cs, 384–408 h (day 17 of period 2), steady-state, plasma, geometric mean (95% CI)): 568 (432, 747) ng·h/mL
CCCNS(=O)(=O)Nc1ncnc(OCCOc2ncc(Br)cn2)c1-c1ccc(Br)cc1 [Macitentan]	346 ± 3	6.3 ± 0.7	99.6	approximately 0.63 μM	1.10^a ng·h/mL	1.38^a ng·h/mL	220 (176, 274) ng/mL	159 (121, 209) ng/mL	7560	approximately 16 h	387 ± 11	No marked difference	362 ± 6	No marked difference	79	0.21^a ng·h/mL	0.07^a ng·h/mL	around 2,490 fold	10	Increase of AUC0–∞ in the presence of ketoconazole [13]: approximately two-fold; Tolerability ([6]; co-administered with Cs, healthy male subjects): well tolerated; Subjects affected by treatment-emergent AEs ([6]; part A, period 1 (macitentan alone), 10 subjects): 30%; Time to maximum plasma concentrations after administration ([8]; in humans): approximately 8 h; Tolerability ([8]; single-ascending dose study, doses of up to 300 mg): well tolerated; Reduction in exposure in the presence of rifampin [11]: approximately four-fold; Tolerability [11]: well tolerated
COc1ccccc1Oc1c(NS(=O)(=O)c2ccc(C(C)(C)C)cc2)nc(-c2ncccn2)nc1OCCO [bosentan]	–	–	–	–	–	–	–	–	–	–	–	–	–	–	–	–	–	–	–	Increase in exposure in the presence of Cs [14]: 30 fold
